Laboratory results as given in patent US20250161286A1 (AEVIS BIO, INC., priority 2022, published 2025).

Assays:
[1] = Stability of 3-MP in human plasma (UPLC-MS); assay type: in vitro ADME
Procedure: To plot a standard calibration curve, the stock sample was diluted by half with acetonitrile from 125 to 0.39 μg/mL to prepare standard solutions for a total of 10 samples at different concentrations, and the calibration curve was plotted as shown in FIG. 6A.
For the experiment of verifying stability in plasma, 10 μL of the test drug prepared at a concentration of 100 μg/mL was added to 90 μL of human plasma and mixed for 30 seconds, and then immediately after the addition, the plasma-mixed test drug was incubated for 15, 30, 60, or 120 minutes to prepare samples. Afterward, 400 μL of 100% ethyl acetate was added to each sample and extracted using a vortex mixture for 1 minute. […] Initially, the mobile phase B was increased from 5% to 95% until 9 minutes and analyzed, the mobile phase B was maintained 95% until 12 minutes, and then the mobile phase B was lowered to 5% and equilibrated, and used in the subsequent analysis. the flow rate of the mobile phase was 0.3 mL/min, the sample injection volume was 2 μL, and the mass spectrometer was operated in the ESI-positive mode. The spray voltage was set to 3.5 kV, and the flow rates of the nitrogen sheath gas, auxiliary gas, and sweep gas were analyzed as 50, 10, and 1 (arbitrary units), respectively. […]

[2] = system: mouse model with Parkinson's disease induced by MPTP administration; experiment: Pillar test in MPTP-induced Parkinson's disease mouse model; assay type: in vivo; conditions: MPTP mice, oral
Procedure: To cause the disease, mice in the G2, G3, G4, and G5 groups were administered MPTP dissolved in saline via an intraperitoneal route at 2-hour intervals four times a day (20 mg/kg/time), while the G1 group received the same amount of saline.
Using a wooden pillar (length: 80 cm, diameter: 0.8˜1 cm) placed vertically on the cage floor, mice were trained to turn around from the top of the pillar in the opposite direction and descend to the bottom three times a day on days 2-3 of the test. On day 4 of the test, the same test was performed three times, and the time it took to change direction from the top and descend.

[3] = Cytotoxicity evaluation, CCK analysis kit; assay type: cell-based; conditions: human, MM.1S (CRL-2974) multiple myeloma cells; MM.1S cells, treated for 3 days
Procedure: The MM.1S (CRL-2974) cell line, which is a human multiple myeloma cell line, was purchased from the American Type Culture Collection (ATCC, Manassas, VA, USA) and used, and incubated using RPMI1640 medium (Corning, MD, USA) supplemented with 10% fatal bovine serum (Corning, MD, USA), 100 U/ml of penicillin (Corning, MD, USA), and 100 μg/ml of streptomycin (Corning, MD, USA) at 37° C. in a 5% CO2 incubator for 24 hours.

[4] = system: Aiolos and Ikaros; experiment: Aiolos and Ikaros degradation by immunoblotting in MM.1S cells; assay type: cell-based, human
Procedure: To this end, the MM.1S cell line was cultured in an RPMI medium (Corning, MD, USA) supplemented with 10% fetal bovine serum (Corning, MD, USA), 100 U/ml of penicillin (Corning, MD, USA), and 100 μg/ml of streptomycin (Corning, MD, USA) at 37° C. in a 5% CO2 incubator. […] The cells were disrupted by adding a RIPA buffer containing a protease inhibitor cocktail (Thermo Fisher Scientific) and centrifuged at 14,000 rpm for 15 minutes at 4° C. to obtain a cell extract. Equal amounts of the cell extract were loaded, and proteins were separated through SDS-PAGE and then transferred to a PVDF membrane. The protein-transferred membrane was blocked using skim milk, incubated with a primary antibody for 3 hours at room temperature, and then incubated with an HRP-conjugated secondary antibody for 1 hour at room temperature. The resulting product was washed with TBS-T three times between steps. Detection was performed using a chemoluminescence reagent (Thermo Fisher Scientific), and confirmed using Chemidoc (iBright CL1500, Invitrogen, CA, USA). Aiolos (#15103), Ikaros (#9034) and GAPDH (#2118S) antibodies used as primary antibodies and a secondary antibody were purchased from Cell Signaling Technology (Danvers, MA, USA).
Additionally, the expression of Aiolos and Ikaros, mediated by 3-MP, was confirmed over time. […]

stability in plasma over time ([1]; 0 to 120 minutes): maintained without significant changes | plasma level ([1]; immediately after plasma addition (0 minutes)): 80 µg/mL
SMILES: Nc1cccc2c1C(=S)N(C1CCC(=O)NC1=O)C2=O (stereo not shown) [3-MP, 3-thiopomalidomide]
pillar descent time ([2]; 90 mg/kg): recovered to a level similar to that of the vehicle administration group | pillar descent time ([2]; all doses (10, 30, 90 mg/kg/day), versus MPTP group): reduced to a statistically significant level | IC50 at 3 days [3]: ≥ 50 µM | expression of Aiolos and Ikaros over time ([4]; 10 μM, 1, 4, 8, 12 or 24 hours): does not reduce the expression of Aiolos and Ikaros | expression of Aiolos and Ikaros ([4]; 0.000128-10 μM, 4 hours): does not reduce the expression of Aiolos and Ikaros
